The results in this text go back to the supplement of paper PMC12613149.

Data set [1] can be described thus: reversed-phase LC retention time (C18, 15 min MeOH gradient); higher = more hydrophobic / later elution.
The nature of data set [2]: collision cross section (TIMS, N2 drift gas) of the primary ion; higher = larger gas-phase ion size.
Where [3] appears, read: ionization mode: ESI+, ion species: [M+H]+.
The mark [4] stands for this setting: ionization mode: ESI-, ion species: [M-H]-.

Regarding `CC(C)NCC(O)COc1cccc2[nH]ccc12` (stereo unspecified) [Pindolol], the “reversed-phase LC retention time” value in data set [1] (setting [3]) came out at 7.36 min. For the same compound, the collision cross section in data set [2] (setting [3]) was 159 Å².

Turning to `CCc1ccc(CCOc2ccc(CC3SC(=O)NC3=O)cc2)nc1` (stereo unspecified) [Pioglitazone], the “reversed-phase LC retention time” value in data set [1] (setting [3]) worked out at 11.1 min; in data set [1] (setting [4]), 13.3 min. In addition, the figures for the collision cross section in data set [2] (setting [3]) and in data set [2] (setting [4]) were 179.07 Å² and 176.43 Å², respectively.

Turning to `NC(=O)C1(N2CCCCC2)CCN(CCCC(=O)c2ccc(F)cc2)CC1` [Pipamperone], the “reversed-phase LC retention time” value in data set [1] (setting [3]) stood at 9.13 min. Moreover, the collision cross section in data set [2] (setting [3]) was determined as 194.74 Å².

In the case of `O=C(/C=C/C=C/c1ccc2c(c1)OCO2)N1CCCCC1` [Piperine], in data set [1] (setting [3]), the “reversed-phase LC retention time” value amounted to 14.6 min. The same compound had a collision cross section in data set [2] (setting [3]) of 177.09 Å².

In the case of `Cc1nc(N(C)C)nc(OC(=O)N(C)C)c1C` [Pirimicarb], the “reversed-phase LC retention time” value in data set [1] (setting [3]) came out at 10.5 min. The compound further displayed a collision cross section in data set [2] (setting [3]) of 156.34 Å².

As for `CCN(CC)c1nc(C)cc(OP(=S)(OC)OC)n1` [Pirimiphos-methyl], in data set [1] (setting [3]), the “reversed-phase LC retention time” value came out at 15.7 min. For the same compound, the collision cross section in data set [2] (setting [3]) came to 167.52 Å².

For the compound `CCC(C)C(=O)OC1CC(O)C=C2C=CC(C)C(CCC(O)CC(O)CC(=O)O)C21` (stereo unspecified) [Pravastatin], the “reversed-phase LC retention time” value in data set [1] (setting [4]) amounted to 12.1 min. The compound also yielded a collision cross section in data set [2] (setting [4]) of 203.46 Å².

With `C[C@]12C=CC(=O)C=C1CC[C@@H]1[C@@H]2[C@@H](O)C[C@@]2(C)[C@H]1CC[C@]2(O)C(=O)CO` [Prednisolone], in data set [1] (setting [4]), the “reversed-phase LC retention time” value stood at 11.9 min. Further, the collision cross section in data set [2] (setting [4]) is reported as 182.17 Å².

For `C[C@]12C=CC(=O)C=C1CC[C@@H]1[C@@H]2C(=O)C[C@@]2(C)[C@H]1CC[C@]2(O)C(=O)CO` [Prednisone], the “reversed-phase LC retention time” value was 11.9 min in data set [1] (setting [3]) and 15.2 min in data set [1] (setting [4]). For the same compound, the collision cross section in data set [2] (setting [3]) is recorded as 185.97 Å²; in data set [2] (setting [4]), 184 Å².

With `CCC1(c2ccccc2)C(=O)NCNC1=O` [Primidone], the “reversed-phase LC retention time” value in data set [1] (setting [3]) was 9.29 min. The collision cross section in data set [2] (setting [3]) stood at 148.13 Å².

As to `CCCN(CCOc1c(Cl)cc(Cl)cc1Cl)C(=O)n1ccnc1` [Prochloraz], in data set [1] (setting [3]), the “reversed-phase LC retention time” value was 15.7 min. The same compound registered a collision cross section in data set [2] (setting [3]) of 183.61 Å².

Regarding `CC12CC1(C)C(=O)N(c1cc(Cl)cc(Cl)c1)C2=O` (stereo unspecified) [Procymidone], the “reversed-phase LC retention time” value in data set [1] (setting [4]) is 15 min. In data set [2] (setting [4]), the collision cross section is on record as 172.16 Å².

Take `CCCSP(=O)(OCC)Oc1ccc(Br)cc1Cl` (stereo unspecified) [Profenofos]: the “reversed-phase LC retention time” value in data set [1] (setting [3]) was 16.6 min. The compound further returned a collision cross section in data set [2] (setting [3]) of 169.17 Å².

Regarding `CC(CN1c2ccccc2Sc2ccccc21)N(C)C` (stereo unspecified) [Promethazin], in data set [1] (setting [3]), the “reversed-phase LC retention time” value was 12.3 min. The collision cross section in data set [2] (setting [3]) came out at 164.06 Å².

Take `CC(C)N(C(=O)CCl)c1ccccc1` [Propachlor]: the “reversed-phase LC retention time” value in data set [1] (setting [3]) is 13 min. The compound also displayed a collision cross section in data set [2] (setting [3]) of 143.81 Å².

`CCCOC(=O)NCCCN(C)C` [Propamocarb]: the “reversed-phase LC retention time” value in data set [1] (setting [3]) is 6.24 min. The collision cross section in data set [2] (setting [3]) came out at 142.68 Å².

As to `CCC(=O)Nc1ccc(Cl)c(Cl)c1` [Propanil], the “reversed-phase LC retention time” value in data set [1] (setting [3]) is 13.8 min; in data set [1] (setting [4]) it was 14.1 min. The collision cross section in data set [2] (setting [3]) came out at 146.71 Å²; in data set [2] (setting [4]), 141.22 Å².

As for `CC(C)NCC(O)COc1cccc2ccccc12` (stereo unspecified) [Propanolol], the “reversed-phase LC retention time” value in data set [1] (setting [3]) was found to be 11.3 min. Besides, the collision cross section in data set [2] (setting [3]) was determined as 162.88 Å².

Regarding `C#CCOS(=O)OC1CCCCC1Oc1ccc(C(C)(C)C)cc1` (stereo unspecified) [Propargite], the “reversed-phase LC retention time” value in data set [1] (setting [3]) is 17.4 min. The compound further yielded a collision cross section in data set [2] (setting [3]) of 195.16 Å².

For the compound `CCCC1COC(Cn2cncn2)(c2ccc(Cl)cc2Cl)O1` (stereo unspecified) [Propiconazole], the “reversed-phase LC retention time” value in data set [1] (setting [3]) stood at 15.7 min. In addition, the collision cross section in data set [2] (setting [3]) is 179.72 Å².

With `CCCOc1nn(C(=O)NS(=O)(=O)c2ccccc2C(=O)OC)c(=O)n1C` [Propoxycarbazone], the results for the “reversed-phase LC retention time” value in data set [1] (setting [3]) and in data set [1] (setting [4]) were 11.7 min and 9.86 min, respectively. The collision cross section in data set [2] (setting [3]) is on record as 199.32 Å²; in data set [2] (setting [4]), 193.45 Å².

Consider `CCCOC(=O)c1ccc(O)cc1` [Propylparaben], for which, in data set [1] (setting [4]), the “reversed-phase LC retention time” value is 12.9 min. In addition, in data set [2] (setting [4]), the collision cross section was found to be 140.81 Å².

Regarding `Cc1c(C(C)C)c(=O)n(-c2ccccc2)n1C` [Propyphenazone], the “reversed-phase LC retention time” value in data set [1] (setting [3]) turned out to be 12.3 min. The collision cross section in data set [2] (setting [3]) worked out at 153.65 Å².

With `C#CC(C)(C)NC(=O)c1cc(Cl)cc(Cl)c1` [Propyzamide], the “reversed-phase LC retention time” value in data set [1] (setting [3]) was 14.2 min. The compound also returned a collision cross section in data set [2] (setting [3]) of 158.35 Å².

With `CCCN(CCC)C(=O)SCc1ccccc1` [Prosulfocarb], the “reversed-phase LC retention time” value in data set [1] (setting [3]) stood at 16.4 min. In data set [2] (setting [3]), the collision cross section is listed as 158.12 Å².

As to `COc1nc(C)nc(NC(=O)NS(=O)(=O)c2ccccc2CCC(F)(F)F)n1` [Prosulfuron], the “reversed-phase LC retention time” value in data set [1] (setting [3]) is 13.9 min; in data set [1] (setting [4]) it was 11.9 min. For the same compound, the collision cross section was 188.2 Å² in data set [2] (setting [3]) and 189.48 Å² in data set [2] (setting [4]).

In the case of `OC(Cc1ccccc1Cl)(Cn1cncn1)C1(Cl)CC1` (stereo unspecified) [Prothioconazole-desthio], the “reversed-phase LC retention time” value in data set [1] (setting [3]) worked out at 14.9 min. Further, the collision cross section in data set [2] (setting [3]) was found to be 168.06 Å².

Regarding `CC1=NNC(=O)N(/N=C/c2cccnc2)C1` [Pymetrozine], the “reversed-phase LC retention time” value in data set [1] (setting [3]) is 5.8 min. The compound also gave a collision cross section in data set [2] (setting [3]) of 153.68 Å².
